# Data: patent US9968716B2, “Drug-eluting stent graft” (Ono Pharmaceutical Co., Ltd., priority 2013, dated 2018)
# Marks after values point to notes of the source that are not given here.
# How the values were obtained:
# [1] = test system: normal human aortic smooth muscle cells (AoSMCs); assay: Promotion of cAMP production in AoSMC culture; type: cell-based; settings: Ao-SMCs, 72 hours of culture
# Method: Cells (produceed by Lonza, purchased from Takara Bio Inc., product name: normal human aortic smooth muscle cells (AoSMCs), product code: CC-2571) were cultured in a medium (produced by Lonza, purchased from Takara Bio Inc., product name: smooth muscle cell medium kit-2 (5% FBS), SmGM™-2 Bullet Kit™, product code: CC-3182) for 72 hours. To the culture medium at the number of cells of 4.0×10^5 cells which was rendered to be serum free, Compound 1 dissolved in DMSO was added so as to be 100 nM or 1000 nM. As a control, the same amount of DMSO was added to the culture medium. After 72 hours of culture, the supernatant was recovered and cAMP in the culture medium was measured with the cAMP EIA kit Code. 581001.
# [2] = test system: NHDFs and HUVECs; assay: Induction of internal regenerating factors in co-culture with NHDFs and HUVECs; type: cell-based, human
smiles,measurement,setting,value
"O=C(O)COc1cccc2c1CCC=C2CCO/N=C(\c1ccccc1)c1cccnc1 [Compound 1, (E)-[5-[2-[1-phenyl-1-(3-pyridyl)methylidenaminoxy]ethyl]-7,8-dihydronaphthalen-1-yloxy]acetic acid]","cAMP in the culture medium, Average",[1]; 100 nM,50.6* nM
same,"cAMP in the culture medium, Average",[1]; 1000 nM,105.4* nM
same,"induction of internal regenerating factors (HGF, VEGF, EGF, IGF-1, SDF-1, G-CSF)",[2],induce
